pIC50: −log10 of the molar value.
Tested on: 242566-281-R-J2-PDC complex spheroid viability
Test: Anticancer human tumor 242566-281-R-J2-PDC patient-derived pancreatic carcinoma cell line growth inhibition [RAS]
Conditions: for pIC50: curve of first compound; for viability, T/C: stronger effect = lower value
Procedure, shortened: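 Agents were tested in combination matrices in half-log decrements from a top concentration at or near clinical Cmax (10 microM if undetermined). Targets were multi-cell spheroids of tumour lines plus HUVEC and MSC stromal cells.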

[1] = second compound 0.00316 µM, first compound 0.0316 µM
[2] = second compound 0.00316 µM, first compound 0.1 µM
[3] = second compound 0.00316 µM, first compound 0.316 µM
[4] = second compound 0.00316 µM, first compound 1 µM
[5] = second compound 0.01 µM, first compound 0.0316 µM
[6] = second compound 0.01 µM, first compound 0.1 µM
[7] = second compound 0.01 µM, first compound 0.316 µM
[8] = second compound 0.01 µM, first compound 1 µM
[9] = second compound 0.0316 µM, first compound 0.0316 µM
[10] = second compound 0.0316 µM, first compound 0.1 µM
[11] = second compound 0.0316 µM, first compound 0.316 µM
[12] = second compound 0.0316 µM, first compound 1 µM
[13] = second compound 0.1 µM, first compound 0.0316 µM
[14] = second compound 0.1 µM, first compound 0.1 µM
[15] = second compound 0.1 µM, first compound 0.316 µM
[16] = second compound 0.1 µM, first compound 1 µM
[17] = second compound 0.316 µM, first compound 0.0316 µM
[18] = second compound 0.316 µM, first compound 0.1 µM
[19] = second compound 0.316 µM, first compound 0.316 µM
[20] = second compound 0.316 µM, first compound 1 µM
[21] = second compound 1 µM, first compound 0.0316 µM
[22] = second compound 1 µM, first compound 0.1 µM
[23] = second compound 1 µM, first compound 0.316 µM
[24] = second compound 1 µM, first compound 1 µM
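Note: spheroids exposed to compound for 7 days before readout.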
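Throughout, for viability, T/C: 100% = DMSO vehicle control wells.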

With `CC(Nc1ccc2c(c1)OCCn1cc(N3C(=O)OCC3C(F)F)nc1-2)C(N)=O` (centres undefined) + C=CC(=O)N1CCN(c2nc(OCC3CCCN3C)nc3c(F)c(-c4nc(N)cc(C)c4C(F)(F)F)c(Cl)cc23)C(C)C1 as the compound, how does the pIC50 (second compound 0.00316 µM) read?
Its pIC50 is 6.12.

What about the pIC50 (second compound 0.01 µM) of the same compound?
The pIC50 was 6.03.

And the pIC50 (second compound 0.0316 µM)?
The pIC50 was 5.77.

And the pIC50 (second compound 0.1 µM)?
Its pIC50 is 6.20.

And the pIC50 (second compound 0.316 µM)?
Its pIC50 is 5.84.

What about the pIC50 (second compound 1 µM) of the same compound?
The pIC50 was 5.89.

And the viability, T/C [1]?
Its viability, T/C is 86.4%.

And the viability, T/C [2]?
The viability, T/C was 113%.

What about the viability, T/C [3] of the same compound?
Its viability, T/C is 76.7%.

What about the viability, T/C [4] of the same compound?
The viability, T/C was 42.7%.

What about the viability, T/C (second compound 0.00316 µM, first compound 3.16 µM) of the same compound?
The viability, T/C was 34.7%.

What about the viability, T/C (second compound 0.00316 µM, first compound 10 µM) of the same compound?
The viability, T/C was 27.4%.

And the viability, T/C [5]?
Its viability, T/C is 105%.

And the viability, T/C [6]?
The viability, T/C was 115%.

And the viability, T/C [7]?
The viability, T/C was 80.3%.

What about the viability, T/C [8] of the same compound?
Its viability, T/C is 48.3%.

And the viability, T/C (second compound 0.01 µM, first compound 3.16 µM)?
The viability, T/C was 37.1%.

And the viability, T/C (second compound 0.01 µM, first compound 10 µM)?
Its viability, T/C is 24.4%.

And the viability, T/C [9]?
Its viability, T/C is 96.1%.

And the viability, T/C [10]?
Its viability, T/C is 102%.

And the viability, T/C [11]?
The viability, T/C was 76.1%.

What about the viability, T/C [12] of the same compound?
The viability, T/C was 63.4%.

What about the viability, T/C (second compound 0.0316 µM, first compound 3.16 µM) of the same compound?
The viability, T/C was 36.6%.

What about the viability, T/C (second compound 0.0316 µM, first compound 10 µM) of the same compound?
Its viability, T/C is 30.9%.

What about the viability, T/C [13] of the same compound?
Its viability, T/C is 103%.

And the viability, T/C [14]?
The viability, T/C was 105%.

And the viability, T/C [15]?
The viability, T/C was 66%.

And the viability, T/C [16]?
The viability, T/C was 41.7%.

What about the viability, T/C (second compound 0.1 µM, first compound 3.16 µM) of the same compound?
The viability, T/C was 37.2%.

And the viability, T/C (second compound 0.1 µM, first compound 10 µM)?
The viability, T/C was 27.8%.

What about the viability, T/C [17] of the same compound?
Its viability, T/C is 89.8%.

What about the viability, T/C [18] of the same compound?
Its viability, T/C is 91.2%.

And the viability, T/C [19]?
The viability, T/C was 72%.

What about the viability, T/C [20] of the same compound?
The viability, T/C was 55.3%.

And the viability, T/C (second compound 0.316 µM, first compound 3.16 µM)?
The viability, T/C was 40%.

What about the viability, T/C (second compound 0.316 µM, first compound 10 µM) of the same compound?
Its viability, T/C is 30.6%.

What about the viability, T/C [21] of the same compound?
The viability, T/C was 104%.

What about the viability, T/C [22] of the same compound?
The viability, T/C was 117%.

What about the viability, T/C [23] of the same compound?
Its viability, T/C is 85.9%.

And the viability, T/C [24]?
Its viability, T/C is 53.4%.

What about the viability, T/C (second compound 1 µM, first compound 3.16 µM) of the same compound?
The viability, T/C was 47%.

And the viability, T/C (second compound 1 µM, first compound 10 µM)?
The viability, T/C was 35.1%.

What does the source list for `O=C(c1ccc(F)c(F)c1Nc1ccc(I)cc1F)N1CC(O)([C@@H]2CCCCN2)C1` + C=CC(=O)N1CCN(c2nc(OCC3CCCN3C)nc3c(F)c(-c4nc(N)cc(C)c4C(F)(F)F)c(Cl)cc23)C(C)C1?
pIC50 (second compound 0.00316 µM): 6.59; pIC50 (second compound 0.01 µM): 6.17; pIC50 (second compound 0.0316 µM): 6.36; pIC50 (second compound 0.1 µM): 6.23; pIC50 (second compound 0.316 µM): < 6.00; pIC50 (second compound 1 µM): 6.55; viability, T/C (second compound 0.00316 µM, first compound 0.00316 µM): 91.4%; viability, T/C (second compound 0.00316 µM, first compound 0.01 µM): 116%; viability, T/C [1]: 92.6%; viability, T/C [2]: 64.8%; viability, T/C [3]: 48%; viability, T/C [4]: 43.9%; viability, T/C (second compound 0.01 µM, first compound 0.00316 µM): 92.5%; viability, T/C (second compound 0.01 µM, first compound 0.01 µM): 116%; viability, T/C [5]: 79.7%; viability, T/C [6]: 73.5%; viability, T/C [7]: 53.5%; viability, T/C [8]: 47.4%; viability, T/C (second compound 0.0316 µM, first compound 0.00316 µM): 104%; viability, T/C (second compound 0.0316 µM, first compound 0.01 µM): 117%; viability, T/C [9]: 80.2%; viability, T/C [10]: 74.6%; viability, T/C [11]: 52.9%; viability, T/C [12]: 42.1%; viability, T/C (second compound 0.1 µM, first compound 0.00316 µM): 103%; viability, T/C (second compound 0.1 µM, first compound 0.01 µM): 104%; viability, T/C [13]: 94.4%; viability, T/C [14]: 70.6%; viability, T/C [15]: 60.6%; viability, T/C [16]: 43%; viability, T/C (second compound 0.316 µM, first compound 0.00316 µM): 103%; viability, T/C (second compound 0.316 µM, first compound 0.01 µM): 113%; viability, T/C [17]: 68.3%; viability, T/C [18]: 70.7%; viability, T/C [19]: 61%; viability, T/C [20]: 48.7%; viability, T/C (second compound 1 µM, first compound 0.00316 µM): 101%; viability, T/C (second compound 1 µM, first compound 0.01 µM): 112%; viability, T/C [21]: 97.9%; viability, T/C [22]: 73.4%; viability, T/C [23]: 45.8%; viability, T/C [24]: 44.6%

From PubChem BioAssay AID2060910 (Molecular Pharmacology Branch, DTP, NCI, 2025)
